Consider one compound from patent US11959088B2, “Modifying protein production in plants” (MEDICAGO INC., priority 2014, dated 2024).

Structures are written as SMILES.

The subject of test [1] is Nicotiana benthamiana plants. In words: BAP treatment after seedling transplantation: HA production (hemagglutination assay) after agroinfiltration with construct 484. Conditions: 500 ppm after 7 and 12 days. The test is classed as in vivo.
Test [2] deals with Nicotiana benthamiana plants. The test can be described thus: BAP treatment after seedling transplantation: primary and secondary leaf biomass. The test is classed as in vivo.
[3] abbreviates: 500 ppm 7 days after transplantation.

For `c1ccc(CNc2ncnc3nc[nH]c23)cc1` [BAP, 6-benzylaminopurine], the “increase of total HA yield per plant” value in test [1] (versus control (non-treated) plants) is 45-50%. Besides, the “yield of HA per g fresh weight” value in test [1] (control less than 200,000 units (FIG. 10)) is recorded as “more than 300,000 units per g fresh weight”. Moreover, in test [2] (100, 500 or 1,000 ppm, 7 and/or 12 days after transplantation (FIG. 9)), the “effect on primary biomass” value is “little effect”. In addition, the “effect on secondary biomass production” value is “significant positive effect” in test [2] (100 or 500 ppm, 7 and/or 12 days after transplantation (FIG. 9)) and “no positive impact” in test [2] (1,000 ppm treatment (FIG. 9)). Moreover, the “increase for primary biomass compared to control” value in test [2] (setting [3]) is “less than 10%”. Moreover, the “relative increase of secondary leaf biomass compared to control (non-treated) plants” value in test [2] (setting [3]) is recorded as “about 37.5%”. Besides, the “secondary leaf biomass harvested” value in test [2] (plants treated with 500 ppm 7 days after transplantation, control ca. 16 g) is given as “ca. 22 g”.
